This is an account of results in US20100222396A1 (Novartis AG, priority 2009, published 2010).

As a reminder, the Kd is the concentration at which binding is half-saturated. One may read the inhibition as the share of the control response that was lost under treatment.

The target in assay [1] is T1, human orexin 2 receptor (hOx2R) (Homo sapiens, UniProt O43614).
T1 construct: expressed in transfected cells
T1 sequence (O43614 1-444): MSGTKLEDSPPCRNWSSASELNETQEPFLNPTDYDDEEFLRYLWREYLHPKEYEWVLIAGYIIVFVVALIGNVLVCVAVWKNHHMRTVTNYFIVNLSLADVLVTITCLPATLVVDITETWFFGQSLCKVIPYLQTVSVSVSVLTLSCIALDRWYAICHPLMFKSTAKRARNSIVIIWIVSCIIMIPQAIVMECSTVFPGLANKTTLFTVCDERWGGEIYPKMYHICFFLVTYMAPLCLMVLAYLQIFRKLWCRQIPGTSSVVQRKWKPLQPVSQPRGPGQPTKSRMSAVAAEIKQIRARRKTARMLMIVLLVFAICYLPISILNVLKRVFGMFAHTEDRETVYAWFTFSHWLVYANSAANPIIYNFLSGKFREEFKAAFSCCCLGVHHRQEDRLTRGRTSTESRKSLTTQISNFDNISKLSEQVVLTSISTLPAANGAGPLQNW
Nature of the assay: Calcium accumulation in cells (FLIPR), antagonism of orexin A, hOx2R. The assay is classed as cell-based. The following applies: for Kd: cells expressing human orexin 2 receptor, IC50 vs orexin A converted by Cheng and Prusoff correction; for inhibition at 10 µM: measured at a concentration of 10 μM of compound (cells marked ^a). The method, boiled down:
(§1)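 Serum-starved receptor-expressing cells were loaded with Fluo-4-AM (2 μM) plus probenecid (0.1 mM) in HEPES buffer, pH 7.4, with 1% BSA, and Ca2+ fluorescence was read on FLIPR. Compounds (10^−9–10^−5 M) were added first, and orexin A was added one hour later to measure antagonism.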

Assay [2] concerns the target T1, human orexin 2 receptor (hOx2R). Kind of assay: Radioligand binding assay ([125I]orexin A competition), hOx2R. The following applies: CHO or HEK cell membranes, 1 h room temperature. The procedure, abridged:
(§2)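 Membranes from CHO or HEK cells expressing the human receptor, incubated 1 h at room temperature with […] [125I]orexin A and compound in HEPES pH 7.5 buffer with BSA, MgCl2, CaCl2 and tween.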

For assay [3], the target named is T2, human orexin 1 receptor (hOx1R) (Homo sapiens, UniProt O43613).
T2 construct: expressed in transfected cells
T2 sequence (O43613 1-425): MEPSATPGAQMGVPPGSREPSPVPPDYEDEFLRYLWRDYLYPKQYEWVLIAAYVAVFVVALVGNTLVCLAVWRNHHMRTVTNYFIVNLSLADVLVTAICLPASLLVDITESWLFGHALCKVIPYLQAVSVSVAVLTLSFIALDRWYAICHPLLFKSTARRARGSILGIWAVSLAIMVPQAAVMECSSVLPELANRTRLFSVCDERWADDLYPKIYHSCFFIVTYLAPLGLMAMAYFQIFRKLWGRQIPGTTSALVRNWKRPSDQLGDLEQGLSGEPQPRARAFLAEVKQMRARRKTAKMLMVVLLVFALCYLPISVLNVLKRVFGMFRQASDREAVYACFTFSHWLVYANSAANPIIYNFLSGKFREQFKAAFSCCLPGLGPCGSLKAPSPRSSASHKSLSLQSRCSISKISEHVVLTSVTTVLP
Kind of assay: Calcium accumulation in cells (FLIPR), antagonism of orexin A, hOx1R. The class given is cell-based. The following applies: for Kd: cells expressing human orexin 1 receptor, IC50 vs orexin A converted by Cheng and Prusoff correction; for inhibition at 10 µM: measured at a concentration of 10 μM of compound (cells marked ^a). The procedure, abridged:
as §1

For assay [4], the target named is T2, human orexin 1 receptor (hOx1R). Nature of the assay: Radioligand binding assay ([125I]orexin A competition), hOx1R. As to conditions: CHO or HEK cell membranes, 1 h room temperature. The procedure, abridged: as §2

The structures appear in SMILES notation.

Regarding `CN(C(=O)c1ccc2ccccc2c1)[C@@H](CCNC(=O)c1ccccn1)Cc1ccccc1` [Example 43, Pyridine-2-carboxylic acid {(R)-3-[methyl-(naphthalene-2-carbonyl)-amino]-4-phenyl-butyl}-amide], the Kd in assay [1] turned out to be 0.203 µM; in assay [2] it was 0.607 µM; in assay [3] it was 0.941 µM; in assay [4], 2.25 µM.

For `CN(C(=O)c1ccc2ccccc2c1)[C@H](CCNC(=O)c1nc2ccccc2n1C)Cc1ccccc1` [Example 44, 1-Methyl-1H-benzoimidazole-2-carboxylic acid {(S)-3-[methyl-(naphthalene-2-carbonyl)-amino]-4-phenyl-butyl}-amide], the Kd was determined as 0.09 µM in assay [1], 0.781 µM in assay [2], 0.033 µM in assay [3] and 0.082 µM in assay [4].

For the compound `CCN(C(=O)c1cccc2c1OCO2)[C@H](CCNC(=O)c1ccccn1)Cc1ccccc1` [Example 45, Pyridine-2-carboxylic acid {(S)-3-[(benzo[1,3]dioxole-4-carbonyl)-ethyl-amino]-4-phenyl-butyl}-amide], the Kd in assay [1] worked out at 0.424 µM; in assay [2] it was 0.748 µM; in assay [3], 2.71 µM; in assay [4] it was 5.33 µM.

Consider `CN(C(=O)c1cccc2c1OCC2)[C@H](CCNC(=O)c1ccccn1)Cc1ccccc1` [Example 46, Pyridine-2-carboxylic acid {(8)-3-[(2,3-dihydro-benzofuran-7-carbonyl)-methyl-amino]-4-phenyl-butyl}-amide], for which the Kd in assay [1] amounted to 1 µM; in assay [2], 0.87 µM; in assay [3], 1.83 µM; in assay [4], 0.397 µM.

With `CN(C(=O)c1ccccc1)[C@H](CCNC(=O)c1nc2ccccc2n1C)Cc1ccccc1` [Example 48, 1-Methyl-1H-benzoimidazole-2-carboxylic acid [(S)-3-(benzoyl-methyl-amino)-4-phenyl-butyl]-amide], the Kd was found to be 0.084 µM in assay [1], 0.94 µM in assay [2], 0.868 µM in assay [3] and 2.82 µM in assay [4].

Take `CN(C(=O)c1ccccc1)[C@H](CCNC(=O)c1cccc2cccnc12)Cc1ccccc1` [Example 49, Quinoline-8-carboxylic acid [(S)-3-(benzoyl-methyl-amino)-4-phenyl-butyl]-amide]: the Kd in assay [1] was found to be 0.414 µM; in assay [2], 1.07 µM; in assay [4] it was 2.45 µM. The inhibition at 10 µM in assay [3] came to 9%.

Take `CN(C(=O)c1ccc2ccccc2c1)[C@H](CCNC(=O)c1nc2ccccc2n1C)Cc1ccc(Cl)cc1` [Example 50, 1-Methyl-1H-benzoimidazole-2-carboxylic acid {(S)-4-(4-chloro-phenyl)-3-[methyl-(naphthalene-2-carbonyl)-amino]-butyl}-amide]: the Kd was determined as 0.059 µM in assay [1], 1.11 µM in assay [2], 0.032 µM in assay [3] and 0.783 µM in assay [4].

As to `CN(C(=O)c1ccc2c(c1)OCO2)[C@H](CCNC(=O)c1ccccn1)Cc1ccc(F)cc1` [Example 51, Pyridine-2-carboxylic acid [(S)-3-[(benzo[1,3]dioxole-5-carbonyl)-methyl-amino]-4-(4-fluoro-phenyl)-butyl]-amide], the Kd was determined as 0.794 µM in assay [1], 1.15 µM in assay [2] and 3.54 µM in assay [4]. The inhibition at 10 µM in assay [3] stood at 16%.

Turning to `COc1cccc(C(=O)N(C)[C@H](CCNC(=O)c2ccccn2)Cc2ccccc2)c1` [Example 52, Pyridine-2-carboxylic acid {(S)-3-[(3-methoxy-benzoyl)-methyl-amino]-4-phenyl-butyl}-amide], the Kd in assay [1] stood at 0.916 µM; in assay [2], 0.963 µM; in assay [3] it was 0.466 µM; in assay [4] it was 2.42 µM.

`CN(C(=O)c1ccc2ccccc2c1)[C@H](CCNC(=O)c1ccccn1)Cc1ccc(Cl)cc1` [Example 53, Pyridine-2-carboxylic acid {(S)-4-(4-chloro-phenyl)-3-[methyl-(naphthalene-2-carbonyl)-amino]-butyl}-amide]: the equilibrium dissociation constant (Kd) in assay [1] turned out to be 0.748 µM; in assay [2], 1.46 µM; in assay [4], 3.41 µM. Besides, the inhibition at 10 µM in assay [3] turned out to be 13%.

For `CN(C(=O)c1cccc2c1OCCO2)[C@H](CCNC(=O)c1ccccn1)Cc1ccccc1` [Example 54, Pyridine-2-carboxylic acid {(S)-3-[(2,3-dihydro-benzo[1,4]dioxine-5-carbonyl)-methyl-amino]-4-phenyl-butyl}-amide], the Kd in assay [1] was 0.958 µM; in assay [2], 1.73 µM; in assay [4], over 10 µM. In assay [3], the inhibition at 10 µM was 9%.

With `CN1CCc2cc(C(=O)N(C)[C@H](CCNC(=O)c3ccccn3)Cc3ccccc3)ccc21` [Example 55, 1-Methyl-2,3-dihydro-1H-indole-5-carboxylic acid {(S)-1-benzyl-3-[(pyridine-2-carbonyl)-amino]-propyl}-methyl-amide], the Kd in assay [1] was determined as 1.29 µM; in assay [2] it was 1.76 µM; in assay [3], 1.64 µM; in assay [4], 0.075 µM.

On to `CN(C(=O)c1cccc2c1OCO2)[C@H](CCNC(=O)c1nc2ccccc2n1C)Cc1ccc(F)cc1` [Example 56, 1-Methyl-1H-benzoimidazole-2-carboxylic acid [(S)-3-[(benzo[1,3]dioxole-4-carbonyl)-methyl-amino]-4-(4-fluoro-phenyl)-butyl]-amide], for which the inhibition at 10 µM in assay [1] was found to be 35%; in assay [3], 1%. For the same compound, the Kd in assay [2] was 2.72 µM; in assay [4] it was over 10 µM.

As to `CN(C(=O)c1ccc2ccccc2c1)[C@H](CCNC(=O)c1nc2ccccc2n1C)Cc1ccc(F)cc1` [Example 57, 1-Methyl-1H-benzoimidazole-2-carboxylic acid {(S)-4-(4-fluoro-phenyl)-3-[methyl-(naphthalene-2-carbonyl)-amino]-butyl}-amide], the dissociation constant Kd came out at 0.026 µM in assay [1], 2.85 µM in assay [2], 0.012 µM in assay [3] and 0.443 µM in assay [4].

Take `CN(C(=O)c1ccc2ccccc2c1)[C@H](CCNC(=O)c1ccccn1)Cc1ccc(F)cc1` [Example 58, Pyridine-2-carboxylic acid {(S)-4-(4-fluoro-phenyl)-3-[methyl-(naphthalene-2-carbonyl)-amino]-butyl}-amide]: the Kd in assay [1] was determined as 1.06 µM; in assay [2], 3.43 µM; in assay [4] it was 2.3 µM. Besides, the inhibition at 10 µM in assay [3] was 1%.

Turning to `CCCN(C(=O)c1cccc2c1OCO2)[C@H](CCNC(=O)c1ccccn1)Cc1ccccc1` [Example 59, Pyridine-2-carboxylic acid {(S)-3-[(benzo[1,3]dioxole-4-carbonyl)-propyl-amino]-4-phenyl-butyl}-amide], the Kd in assay [1] came to 0.562 µM; in assay [2], 3.62 µM; in assay [3] it was 2.04 µM; in assay [4] it was 3.63 µM.

`CN(C(=O)c1cc(C(F)(F)F)cc(C(F)(F)F)c1)C(CCNC(=O)c1ccc2c(ccn2C)c1)Cc1ccccc1` (stereo not shown) [Example 60, 1-Methyl-1H-indole-5-carboxylic acid {3-[(3,5-bis-trifluoromethyl-benzoyl)-methyl-amino]-4-phenyl-butyl}-amide]: the Kd amounted to 0.362 µM in assay [1], 3.86 µM in assay [2], 3.47 µM in assay [3] and 17.5 µM in assay [4].

`CN(C(=O)c1ccc2c(c1)OCO2)[C@H](CCNC(=O)c1ccc2c(c1)OCO2)Cc1ccccc1` [Example 62, Benzo[1,3]dioxole-5-carboxylic acid {(S)-3-[(benzo[1,3]dioxole-5-carbonyl)-amino]-1-benzyl-propyl}-methyl-amide]: the Kd amounted to 0.022 µM in assay [1], 0.047 µM in assay [2], 0.872 µM in assay [3] and 0.222 µM in assay [4].

Consider `CN(C(=O)c1cccc2c1OCO2)[C@H](CCNC(=O)c1ccccn1)Cc1ccc(F)cc1` [Example 63, Pyridine-2-carboxylic acid [(S)-3-[(benzo[1,3]dioxole-4-carbonyl)-methyl-amino]-4-(4-fluoro-phenyl)-butyl]-amide], for which the inhibition at 10 µM in assay [1] came to 24%; in assay [3] it was 0%. The Kd in assay [2] was 5.9 µM; in assay [4], over 10 µM.
